Key:
Experiment in all cases: relative viability (nuclei count vs DMSO), 5 days (fraction); higher = more cells survive
Cediranib + Pictilisib = compound: COc1cc2c(Oc3ccc4[nH]c(C)cc4c3F)ncnc2cc1OCCCN1CCCC1 [Cediranib] + CS(=O)(=O)N1CCN(Cc2cc3nc(-c4cccc5[nH]ncc45)nc(N4CCOCC4)c3s2)CC1 [Pictilisib] (partner 1 µM)
Outline: (§1)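 Lung cancer cell lines in 1536-well plates got either a single drug or a fixed anchor-drug dose together with five library-drug doses (not always all listed) in √10 steps, by pin tool, on the day after seeding. Nuclei were counted after 5 days, and relative viability is the treated-to-vehicle ratio of nuclei counts. Values are medians of duplicate plates.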

[1] = compound: O=C(C[C@H]1NCCC[C@@H]1O)Cn1cnc2cc(Br)c(Cl)cc2c1=O (racemic) [Halofuginone] + CS(=O)(=O)N1CCN(Cc2cc3nc(-c4cccc5[nH]ncc45)nc(N4CCOCC4)c3s2)CC1 [Pictilisib] (partner 1 µM)
Outline: as §1

Cediranib + Foretinib = compound: COc1cc2c(Oc3ccc4[nH]c(C)cc4c3F)ncnc2cc1OCCCN1CCCC1 [Cediranib] + COc1cc2c(Oc3ccc(NC(=O)C4(C(=O)Nc5ccc(F)cc5)CC4)cc3F)ccnc2cc1OCCCN1CCOCC1 [Foretinib] (partner 0.25 µM)
Outline: as §1

Decitabine + Luminespib = compound: Nc1ncn([C@H]2C[C@H](O)[C@@H](CO)O2)c(=O)n1 [Decitabine] + CCNC(=O)c1noc(-c2cc(C(C)C)c(O)cc2O)c1-c1ccc(CN2CCOCC2)cc1 [Luminespib] (partner 0.01 µM)
Outline: as §1

Cell Line | relative viability (Cediranib + Pictilisib; first compound 0.04 µM) | relative viability (Cediranib + Pictilisib; first compound 0.1265 µM) | relative viability (Cediranib + Pictilisib; first compound 0.4 µM) | relative viability (Cediranib + Pictilisib; first compound 1.265 µM) | relative viability (Cediranib + Pictilisib; first compound 4 µM) | relative viability ([1]; first compound 0.001 µM) | relative viability ([1]; first compound 0.003162 µM) | relative viability ([1]; first compound 0.01 µM) | relative viability ([1]; first compound 0.03162 µM) | relative viability ([1]; first compound 0.1 µM) | relative viability (Cediranib + Foretinib; first compound 0.04 µM) | relative viability (Cediranib + Foretinib; first compound 0.1265 µM) | relative viability (Cediranib + Foretinib; first compound 0.4 µM) | relative viability (Cediranib + Foretinib; first compound 1.265 µM) | relative viability (Cediranib + Foretinib; first compound 4 µM) | relative viability (Decitabine + Luminespib; first compound 0.04 µM) | relative viability (Decitabine + Luminespib; first compound 0.1265 µM) | relative viability (Decitabine + Luminespib; first compound 0.4 µM) | relative viability (Decitabine + Luminespib; first compound 1.265 µM) | relative viability (Decitabine + Luminespib; first compound 4 µM)
EKVX | 0.408 | 0.563 | 0.427 | 0.487 | 0.383 | 0.442 | 0.442 | 0.443 | 0.469 | 0.354 | 0.67 | 0.418 | 0.74 | 0.705 | 0.751 | 0.68 | 0.682 | 0.551 | 0.389 | 0.322
EMC-BAC-2 | 0.568 | 0.54 | 0.538 | 0.443 | 0.555 | 0.491 | 0.55 | 0.489 | 0.54 | 0.46 | 1.04 | 1.11 | 0.984 | 0.991 | 1.03 | 1.02 | 0.927 | 0.715 | 0.602 | 0.584
HARA | 0.269 | 0.684 | 0.393 | 0.481 | 0.37 | 0.556 | 0.461 | 0.402 | 0.436 | 0.235 | 0.92 |  | 0.766 | 0.868 | 0.706 | 0.802 | 0.544 | 0.34 | 0.144 | 0.158
LU99A | 0.354 |  | 0.314 | 0.276 | 0.36 | 0.405 | 0.361 | 0.294 | 0.308 | 0.242 | 0.793 | 0.728 | 0.8 | 0.769 | 0.832 | 0.248 | 0.24 | 0.318 | 0.251 | 0.24
NCI-H1944 | 0.33 | 0.494 | 0.328 | 0.297 | 0.328 | 0.317 | 0.398 | 0.347 | 0.35 | 0.307 | 0.95 | 0.975 | 0.905 | 0.873 | 1 | 0.643 | 0.645 | 0.633 | 0.389 | 0.369
LK-2 | 0.607 | 0.524 | 0.573 | 0.591 | 0.319 | 0.577 | 0.792 | 0.531 | 0.664 | 0.532 | 1.43 | 0.875 | 1.23 | 1.19 | 1.01 | 0.196 | 0.193 | 0.156 | 0.214 | 0.17
NCI-H441 | 0.492 | 0.474 | 0.45 | 0.378 | 0.426 | 0.482 | 0.466 | 0.489 | 0.415 | 0.385 | 1.09 |  | 0.87 | 0.794 | 1.14 | 0.271 | 0.371 | 0.337 | 0.293 | 0.256
NCI-H23 | 0.472 |  | 0.533 | 0.345 | 0.569 | 0.507 | 0.518 | 0.47 | 0.415 | 0.296 | 1.07 |  | 0.939 | 0.863 | 1.03 | 0.215 | 0.213 | 0.202 | 0.199 | 0.203
NCI-H647 | 0.429 |  | 0.392 | 0.324 | 0.385 | 0.543 | 0.425 | 0.459 | 0.418 | 0.33 | 1.14 | 1.25 | 1.03 | 1.27 | 1.3 | 0.105 | 0.141 | 0.127 | 0.12 | 0.103
201T | 0.725 | 0.699 | 0.639 | 0.632 | 0.7 | 0.708 | 0.647 | 0.666 | 0.597 | 0.516 | 1.28 | 1.57 | 1.03 | 1.02 | 0.754 | 0.984 | 0.987 | 1.07 |  | 0.75
NCI-H1734 | 0.457 | 0.541 | 0.54 | 0.365 | 0.47 | 0.46 | 0.492 | 0.403 | 0.449 | 0.327 | 0.813 | 0.911 | 0.822 | 0.853 | 0.979 | 0.182 | 0.172 | 0.165 | 0.192 | 0.157
NCI-H596 | 0.458 | 0.493 | 0.348 | 0.37 | 0.241 | 0.423 | 0.431 | 0.388 | 0.423 | 0.3 | 1.04 | 0.833 | 0.974 |  | 0.926 | 0.9 | 1.01 |  | 0.696 | 0.739
